Reference: patent US20070238785A1, “Use of an anti-atherothrombotic compound in obtaining medicaments intended for the treatment of vascular disorders” (priority 2006, published 2007)
Where a name gives a salt, the structure may show the parent alone.

Columns and labels:
carotid thrombosis = assay: models of carotid thrombosis in vivo and ex vivo (occlusion time); details: carotid thrombosis: vascular electrolysis (dog), mechanical lesion (guinea pig), electric stimulation (rat), ex vivo carotid-carotid arterial bypass by glass capillary
thrombus = assay: ex vivo anti-thrombotic activity, perfusion chamber model, in patients at high risk of ischaemic CVA
Description: In this study, the sodium salt of the (R) isomer of the compound of formula (I) also has an effect on the measured markers of inflammation (sVCAM, sPAI-1, sP-selectin, thrombomodulin).

atherosclerotic lesion = assay: experimental models of anti-proliferative, anti-atheromatous and anti-inflammatory effects; assay type: in vivo
sodium-loaded SHR-SP rat [1] = assay: 5-week study in sodium-loaded SHR-SP rat (cardiac hypertrophy, urinary 8-OH-dG, plasma thiostatin); assay type: in vivo; details: 30 mg/kg/day in food, 5 weeks, compared to Carrier group
Procedure: (§1) 10-week old male SHR-SP rats (Charles River) being given 1% NaCl in their drinking water were separated into two groups in random manner and were treated, or not, with the sodium salt of the (R) isomer of the compound of formula (I) (30 mg/kg/day) incorporated in their food.
In a second study, the rats were monitored over 5 weeks, between 10 and 15 weeks of age, and were then sacrificed in order to quantify a urinary marker of oxidative stress (8-OH-dG) and a plasma marker reflecting acute inflammation (thiostatin, which in the rat is the equivalent of CRP) and in order to determine cardiac hypertrophy.
During the last 24 hours of monitoring, the animals were placed in individual metabolic cages and the urines were collected in sterile tubes (200 μl of 2 mM EDTA). Diuresis was measured and the production of 8-hydroxy-2′-deoxyguanosine (8-OH-dG) was quantified by ELISA assay (Oxis, Bioxytech).
The rats were anaesthetised by intraperitoneal injection of pentobarbital sodium (50 mg/kg, Ceva laboratories). Blood was sampled from the carotid artery (sampling into heparin 5000 IU/ml) in order to measure thiostatin production by ELISA assay (Life Diagnostics). The heart was excised, dried and weighed, and cardiac hypertrophy was determined by dividing the weight of the dry heart by the body weight for each animal in order to standardise the measurement.
(§2) The results are reported as the mean±S.E.M. Differences are considered significant when P<0.05 after a Student's t test. The survival of the animals is represented on a Kaplan-Meier graph and the results are considered significant when P<0.05 after a log-rank test.

radial artery = assay: peripheral vasomotor response, provoked hyperaemia test in atheromatous patients; assay type: in vivo; details: versus placebo, patients treated with aspirin; whatever the dose, single or repeated administration (15 days), about 2 hours after administration
Procedure: This superiority is observed whatever the dose, after single administration or repeated administration (15 days), the vasodilatory effect being evaluated about 2 hours after administration of the medicament.

sodium-loaded SHR-SP rat [2] = assay: survival study in sodium-loaded SHR-SP rat; assay type: in vivo; details: 30 mg/kg/day in food, 1% NaCl in drinking water, from 10 weeks of age; Carrier group 57 days
Procedure: as §1
In a first study, the survival of each group was determined by calculating the percentage of animals alive each day after the start of treatment.
as §2

[3] = after 10 days of administration, compared with aspirin

`Cc1ccc2c(c1CCC(=O)O)CCC(NS(=O)(=O)c1ccc(Cl)cc1)C2` [sodium salt of the (R) isomer of the compound of formula (I), 3-{6-[(4-chlorophenylsulphonyl)amino]-2-methyl-5,6,7,8-tetrahydro-naphth-1-yl}propionic acid] was tested, and the occlusion time (carotid thrombosis) was “lengthens the occlusion time in dose-dependent manner”, the “% adhesion” value (thrombus; [3]) was “superiority” and the “dense surface area of the thrombus” value (thrombus; [3]) was “superiority”. For the same compound, the “total surface area of the thrombus” value (thrombus; [3]) was “superiority”, the “measured markers of inflammation (sVCAM, sPAI-1, sP-selectin, thrombomodulin)” value (thrombus; patients at high risk of ischaemic CVA) was “has an effect” and the “expression of adhesion molecules and markers such as endothelin, ICAM and VCAM” value (atherosclerotic lesion) was “inhibits”. The “infiltration of macrophages into the vascular wall” value (atherosclerotic lesion) was “inhibits”, the intima/media ratio (atherosclerotic lesion) was “significantly reduces” and the serum cholesterol (atherosclerotic lesion) was “without reducing”. The “surface area of the atherosclerotic lesion” value (atherosclerotic lesion) was “significantly reduces”, the “thickness of the vascular wall” value (atherosclerotic lesion) was “significantly reduces” and the “cardiac hypertrophy (dry heart weight / body weight)” value (sodium-loaded SHR-SP rat [1]) was “less marked”. For the same compound, the “plasma thiostatin (acute inflammation)” value (sodium-loaded SHR-SP rat [1]) was “lower”, the “total amount of 8-OH-dG in urines over 24 hours (oxidative stress)” value (sodium-loaded SHR-SP rat [1]) was “reduced” and the endothelium-dependent vasodilation (radial artery) was “superiority”. For the same compound, the “time after which half the rats were dead (survival)” value (sodium-loaded SHR-SP rat [2]) was 99 days.
